Measured values taken from ChEMBL document CHEMBL1201862, “PubChem BioAssay data set” (2004).
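Cultured in 96-well plates, cells were exposed to test compound for 48 hours across five concentrations. GI50 is the concentration that inhibits growth by half.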 Calls of active or inactive are those of the source. Rule as the data show it: active = GI50 up to about 1.1 µM and inactive = higher.

Columns and labels:
Assay in all cases: growth of human tumour cells (NCI), 48 h
[1] = system: SW-620
[2] = system: SK-MEL-5
[3] = system: UACC-257
[4] = system: T47D
[5] = system: NCI-H460
[6] = system: DU-145
[7] = system: M14
[8] = system: SK-OV-3
[9] = system: MDA-MB-435
[10] = system: RPMI-8226
[11] = system: SNB-19
[12] = system: OVCAR-5
[13] = system: COLO 205
[14] = system: CAKI-1
[15] = system: PC-3
[16] = system: TK-10
[17] = system: MCF7
[18] = system: KM12
[19] = system: OVCAR-4
[20] = system: HT-29
[21] = system: SN12C
[22] = system: 786-0
[23] = system: SNB-75
[24] = system: MDA-N
[25] = system: SF-268
[26] = system: SF-539
[27] = system: SF-295
[28] = system: HL-60
[29] = system: MDA-MB-231
[30] = system: A549
[31] = system: K562
[32] = system: MOLT-4
[33] = system: EKVX
[34] = system: NCI-H226
[35] = system: Malme-3M
[36] = system: NCI/ADR-RES
[37] = system: UO-31
[38] = system: UACC-62
[39] = system: HOP-92
[40] = system: LOX IMVI
[41] = system: CCRF-CEM
[42] = system: U-251
[43] = system: SR
[44] = system: IGROV-1
[45] = system: SK-MEL-28
[46] = system: NCI-H23
[47] = system: OVCAR-3
[48] = system: OVCAR-8
[49] = system: HCC 2998
[50] = system: HCT-15
[51] = system: ACHN
[52] = system: Hs-578T
[53] = system: HCT-116
[54] = system: NCI-H522
[55] = system: SK-MEL-2
[56] = system: RXF 393
[57] = system: HOP-62
[58] = system: A498

SMILES: O=C(O)c1cc(/C=C/c2ccc(O)c(O)c2)ccc1O
- GI50 [1]: > 10 µM (inactive)
- GI50 [2]: > 100 µM (inactive)
- GI50 [3]: > 100 µM (inactive)
- GI50 [4]: > 100 µM (inactive)
- GI50 [5]: > 100 µM (inactive)
- GI50 [6]: > 100 µM (inactive)
- GI50 [7]: 45.8 µM (inactive)
- GI50 [8]: > 100 µM (inactive)
- GI50 [9]: 77.8 µM (inactive)
- GI50 [10]: 31 µM (inactive)
- GI50 [11]: > 100 µM (inactive)
- GI50 [12]: > 100 µM (inactive)
- GI50 [13]: > 100 µM (inactive)
- GI50 [14]: 32.7 µM (inactive)
- GI50 [15]: > 100 µM (inactive)
- GI50 [16]: > 100 µM (inactive)
- GI50 [17]: 23.1 µM (inactive)
- GI50 [18]: > 100 µM (inactive)
- GI50 [19]: > 100 µM (inactive)
- GI50 [20]: > 100 µM (inactive)
- GI50 [21]: > 100 µM (inactive)
- GI50 [22]: > 100 µM (inactive)
- GI50 [23]: > 100 µM (inactive)
- GI50 [24]: 34.8 µM (inactive)
- GI50 [25]: > 100 µM (inactive)
- GI50 [26]: > 100 µM (inactive)
- GI50 [27]: > 100 µM (inactive)
- GI50 [28]: 30.7 µM (inactive)
- GI50 [29]: > 100 µM (inactive)
- GI50 [30]: > 100 µM (inactive)
- GI50 [31]: 20.3 µM (inactive)
- GI50 [32]: 30.8 µM (inactive)
- GI50 [33]: > 100 µM (inactive)
- GI50 [34]: > 100 µM (inactive)
- GI50 [35]: > 100 µM (inactive)
- GI50 [36]: > 100 µM (inactive)
- GI50 [37]: > 100 µM (inactive)
- GI50 [38]: > 100 µM (inactive)
- GI50 [39]: > 100 µM (inactive)
- GI50 [40]: > 100 µM (inactive)
- GI50 [41]: 24.5 µM (inactive)
- GI50 [42]: > 100 µM (inactive)
- GI50 [43]: 38.3 µM (inactive)
- GI50 [44]: > 100 µM (inactive)
- GI50 [45]: > 100 µM (inactive)
- GI50 [46]: > 100 µM (inactive)
- GI50 [47]: > 100 µM (inactive)
- GI50 [48]: > 100 µM (inactive)
- GI50 [49]: > 100 µM (inactive)
- GI50 [50]: > 100 µM
- GI50 [51]: > 100 µM (inactive)
- GI50 [52]: > 100 µM (inactive)
- GI50 [53]: 40 µM (inactive)
- GI50 [54]: > 100 µM (inactive)
- GI50 [55]: > 100 µM (inactive)
- GI50 [56]: 28.1 µM (inactive)
- GI50 [57]: > 100 µM (inactive)

SMILES: N=C(N)SCCC(=O)CCSC(=N)N
- GI50 [1]: > 100 µM (inactive)
- GI50 [2]: > 100 µM (inactive)
- GI50 [3]: 36 µM (inactive)
- GI50 [4]: > 100 µM (inactive)
- GI50 [5]: > 100 µM (inactive)
- GI50 [6]: > 100 µM (inactive)
- GI50 [7]: > 100 µM (inactive)
- GI50 [8]: > 100 µM (inactive)
- GI50 [9]: > 100 µM (inactive)
- GI50 [11]: > 100 µM (inactive)
- GI50 [13]: > 100 µM (inactive)
- GI50 [15]: > 100 µM (inactive)
- GI50 [16]: > 100 µM (inactive)
- GI50 [17]: > 100 µM (inactive)
- GI50 [18]: 70.3 µM (inactive)
- GI50 [19]: > 100 µM (inactive)
- GI50 [20]: > 100 µM (inactive)
- GI50 [21]: > 100 µM (inactive)
- GI50 [23]: > 100 µM (inactive)
- GI50 [24]: > 100 µM (inactive)
- GI50 [25]: > 100 µM (inactive)
- GI50 [27]: > 100 µM (inactive)
- GI50 [28]: > 100 µM (inactive)
- GI50 [29]: > 100 µM (inactive)
- GI50 [30]: > 100 µM (inactive)
- GI50 [31]: 99.5 µM (inactive)
- GI50 [32]: 99.5 µM (inactive)
- GI50 [34]: > 100 µM (inactive)
- GI50 [36]: 91.2 µM (inactive)
- GI50 [37]: > 100 µM (inactive)
- GI50 [39]: > 100 µM (inactive)
- GI50 [40]: > 100 µM (inactive)
- GI50 [41]: > 100 µM (inactive)
- GI50 [42]: > 100 µM (inactive)
- GI50 [43]: > 100 µM (inactive)
- GI50 [45]: > 100 µM (inactive)
- GI50 [46]: > 100 µM (inactive)
- GI50 [47]: > 100 µM (inactive)
- GI50 [48]: > 100 µM (inactive)
- GI50 [58]: 5.5 µM (inactive)
- GI50 [49]: > 100 µM (inactive)
- GI50 [50]: > 100 µM
- GI50 [51]: > 100 µM (inactive)
- GI50 [52]: > 100 µM (inactive)
- GI50 [53]: > 100 µM (inactive)
- GI50 [54]: > 100 µM (inactive)
- GI50 [56]: > 100 µM (inactive)

SMILES: O=[N+]([O-])c1cc(-c2nnc(C34CC5CC(CC(C5)C3)C4)o2)cc([N+](=O)[O-])c1
- GI50 [1]: 15.4 µM (inactive)
- GI50 [2]: 14.1 µM (inactive)
- GI50 [3]: 83.4 µM (inactive)
- GI50 [4]: > 100 µM (inactive)
- GI50 [5]: 32.4 µM (inactive)
- GI50 [6]: 33 µM (inactive)
- GI50 [7]: 21.5 µM (inactive)
- GI50 [8]: > 100 µM (inactive)
- GI50 [9]: 19.1 µM (inactive)
- GI50 [10]: 82.2 µM (inactive)
- GI50 [11]: > 100 µM (inactive)
- GI50 [12]: > 100 µM (inactive)
- GI50 [13]: 17.9 µM (inactive)
- GI50 [14]: > 100 µM (inactive)
- GI50 [15]: 45.2 µM (inactive)
- GI50 [18]: > 100 µM (inactive)
- GI50 [19]: > 100 µM (inactive)
- GI50 [20]: 6.41 µM (inactive)
- GI50 [21]: 90.8 µM (inactive)
- GI50 [22]: 34.2 µM (inactive)
- GI50 [23]: 74.6 µM (inactive)
- GI50 [24]: 24.4 µM (inactive)
- GI50 [25]: 86.1 µM (inactive)
- GI50 [26]: > 100 µM (inactive)
- GI50 [27]: > 100 µM (inactive)
- GI50 [28]: > 100 µM (inactive)
- GI50 [29]: 39.2 µM (inactive)
- GI50 [30]: 48.1 µM (inactive)
- GI50 [31]: 21 µM (inactive)
- GI50 [32]: > 100 µM (inactive)
- GI50 [33]: > 100 µM (inactive)
- GI50 [34]: 83.4 µM (inactive)
- GI50 [35]: 64.4 µM (inactive)
- GI50 [36]: > 100 µM (inactive)
- GI50 [37]: > 100 µM (inactive)
- GI50 [38]: 86.9 µM (inactive)
- GI50 [39]: 36.1 µM (inactive)
- GI50 [40]: > 100 µM (inactive)
- GI50 [41]: > 100 µM (inactive)
- GI50 [42]: 45.5 µM (inactive)
- GI50 [43]: > 100 µM (inactive)
- GI50 [44]: > 100 µM (inactive)
- GI50 [45]: 86.1 µM (inactive)
- GI50 [46]: > 100 µM (inactive)
- GI50 [47]: 63.5 µM (inactive)
- GI50 [48]: 25.5 µM (inactive)
- GI50 [58]: 61.7 µM (inactive)
- GI50 [49]: 70.5 µM (inactive)
- GI50 [50]: 21.1 µM
- GI50 [51]: 58.6 µM (inactive)
- GI50 [52]: 64.7 µM (inactive)
- GI50 [53]: 12.3 µM (inactive)
- GI50 [54]: > 100 µM (inactive)
- GI50 [55]: 63.4 µM (inactive)
- GI50 [56]: > 100 µM (inactive)
- GI50 [57]: 59.4 µM (inactive)
